From US20250282827A1, “LIPIDATED POLYMYXIN ANALOGUES” (priority 2021, published 2025)
Values after ≈ are worked out from the molar mass of the structure shown. Like-named read-outs stand apart in the source and are kept apart here. Positions of bridges follow the written chain, without caps; N, C: chain ends. Non-standard residues stand in square brackets, D forms with d. Residues, ends and D or L forms follow the SMILES beside them. *: point of attachment. Ethyl(2-decanoyloxy) = CCCCCCCCCC(=O)OCC*; Ethyl(2-OPiv) = CC(C)(C)C(=O)OCC*; Ethyl(2-OBz) = O=C(OCC*)c1ccccc1; Octanoyl = CCCCCCCC(=O)*; Dab = NCC[C@H](N)C(=O)O

How the values were obtained:
E. coli ATCC 25922 = type: cell-based, Escherichia coli
Excerpt: (§1) All 81 compounds prepared in Examples 2 and 3 underwent screening against a panel of Gram-negative bacterium to assess their ability to inhibit bacterial growth. […] The median value is presented.

A. baumannii ATCC 19606 = type: cell-based, Acinetobacter baumannii
Excerpt: as §1

P. aeruginosa ATCC 27853 = type: cell-based, Pseudomonas aeruginosa
Excerpt: as §1

K. pneumoniae ATCC 33495 = type: cell-based, Klebsiella pneumoniae
Excerpt: as §1

[1] = tested on: K. pneumoniae ATCC MS6671; type: cell-based, Klebsiella pneumoniae
Excerpt: as §1

[2] = tested on: K. pneumoniae ATCC 700603; type: cell-based, Klebsiella pneumoniae
Excerpt: as §1

E. coli ATCC MS8345 = type: cell-based, Escherichia coli
Excerpt: as §1
Expansion of the polymyxin macrocycle by substituting […]) offered little advantage in antimicrobial activity but was generally well tolerated although for A. baumanni and P. aeruginosa this was detrimental.

Row | Compound | MIC E. coli ATCC 25922 (E. coli ATCC 25922; ATCC 25922) | MIC A. baumannii ATCC 19606 (A. baumannii ATCC 19606; ATCC 19606) | MIC P. aeruginosa ATCC 27853 (P. aeruginosa ATCC 27853; ATCC 27853) | MIC K. pneumoniae ATCC 33495 (K. pneumoniae ATCC 33495; ATCC 33495) | MIC K. pneumoniae ATCC MS6671 ([1]; ATCC MS6671) | MIC K. pneumoniae ATCC 700603 ([2]; ATCC 700603) | MIC E. coli ATCC MS8345 (E. coli ATCC MS8345; ATCC MS8345) | MIC E. coli ATCC 25922 (E. coli ATCC 25922; median of triplicate) | MIC A. baumannii ATCC 19606 (A. baumannii ATCC 19606; median of triplicate) | MIC P. aeruginosa ATCC 27853 (P. aeruginosa ATCC 27853; median of triplicate) | MIC K. pneumoniae ATCC 33495 (K. pneumoniae ATCC 33495; median of triplicate) | MIC K. pneumoniae ATCC MS6671 ([1]; median of triplicate) | MIC K. pneumoniae ATCC 700603 ([2]; median of triplicate) | MIC E. coli ATCC MS8345 (E. coli ATCC MS8345; colistin-resistant strain, median of triplicate)
1 | CC(C)C[C@@H]1NC(=O)[C@@H](Cc2ccccc2)NC(=O)[C@H](CCN)NC(=O)[C@@H](NC(=O)[C@H](CCN)NC(=O)[C@@H](NC(=O)[C@H](CCN)NC(=O)[C@@H](N)CSCCOC(=O)C(C)(C)C)[C@@H](C)O)CCNC(=O)[C@H]([C@@H](C)O)NC(=O)[C@H](CCN)NC(=O)[C@H](CCN)NC1=O [Compound 32] (H-C(Ethyl(2-OPiv))[Dab]T[Dab][Dab][Dab][dF]L[Dab][Dab]T; lactam 5-C) | 0.25 µg/mL (≈ 0.193 µM) | 1 µg/mL (≈ 0.772 µM) | 1 µg/mL (≈ 0.772 µM) | 0.125 µg/mL (≈ 0.0966 µM) | >32 µg/mL | 0.5 µg/mL (≈ 0.386 µM) | 16 µg/mL (≈ 12.4 µM) |  |  |  |  |  |  | 
2 | CCCCCCCCCC(=O)OCCSC[C@@H]1NC(=O)[C@@H](Cc2ccccc2)NC(=O)[C@H](CCN)NC(=O)[C@@H](NC(=O)[C@H](CCN)NC(=O)[C@@H](NC(=O)[C@H](CCN)NC(=O)[C@@H](N)CSCCOC(=O)CCCCCCCCC)[C@@H](C)O)CCNC(=O)[C@H]([C@@H](C)O)NC(=O)[C@H](CCN)NC(=O)[C@H](CCN)NC1=O [Compound 37] (H-C(Ethyl(2-decanoyloxy))[Dab]T[Dab][Dab][Dab][dF]C(Ethyl(2-decanoyloxy))[Dab][Dab]T; lactam 5-C) | 2 to 4 µg/mL | 4 µg/mL (≈ 2.58 µM) | 4 µg/mL (≈ 2.58 µM) | 2 µg/mL (≈ 1.29 µM) | >32 µg/mL | 4 µg/mL (≈ 2.58 µM) | 4 µg/mL (≈ 2.58 µM) |  |  |  |  |  |  | 
3 | CCCCCCCCCC(=O)OCCSC[C@H](N)C(=O)N[C@@H](CCN)C(=O)N[C@H](C(=O)N[C@@H](CCN)C(=O)N[C@H]1CCCCNC(=O)[C@H]([C@@H](C)O)NC(=O)[C@H](CCN)NC(=O)[C@H](CCN)NC(=O)[C@H](CC(C)C)NC(=O)[C@@H](Cc2ccccc2)NC(=O)[C@H](CCN)NC1=O)[C@@H](C)O [Compound 25] (H-C(Ethyl(2-decanoyloxy))[Dab]T[Dab]K[Dab][dF]L[Dab][Dab]T; lactam 5-C) | 2 µg/mL (≈ 1.44 µM) | >32 µg/mL | 0.5 µg/mL (≈ 0.359 µM) | 0.5 µg/mL (≈ 0.359 µM) | >32 µg/mL | 2 µg/mL (≈ 1.44 µM) | 16 to 32 µg/mL |  |  |  |  |  |  | 
4 | CC(C)C[C@@H]1NC(=O)[C@@H](Cc2ccccc2)NC(=O)[C@H](CCN)NC(=O)[C@@H](NC(=O)[C@H](CCN)NC(=O)[C@@H](NC(=O)[C@H](N)CSCCOC(=O)C(C)(C)C)[C@@H](C)O)CCNC(=O)[C@H]([C@@H](C)O)NC(=O)[C@H](CCN)NC(=O)[C@H](CCN)NC1=O [Compound 93] (H-[dC](Ethyl(2-OPiv))T[Dab][Dab][Dab][dF]L[Dab][Dab]T; lactam 4-C) | 1 µg/mL (≈ 0.837 µM) | 4 µg/mL (≈ 3.35 µM) | 2 µg/mL (≈ 1.67 µM) | 1 µg/mL (≈ 0.837 µM) | >32 µg/mL | 2 µg/mL (≈ 1.67 µM) | 32 µg/mL (≈ 26.8 µM) |  |  |  |  |  |  | 
5 | CCCCCCCC(=O)N[C@@H](CSCCOC(=O)c1ccccc1)C(=O)N[C@@H](CCN)C(=O)N[C@H](C(=O)N[C@@H](CCN)C(=O)N[C@H]1CCNC(=O)[C@H]([C@@H](C)O)NC(=O)[C@H](CCN)NC(=O)[C@H](CCN)NC(=O)[C@H](CSCCOC(=O)c2ccccc2)NC(=O)[C@@H](Cc2ccccc2)NC(=O)[C@H](CCN)NC1=O)[C@@H](C)O [Compound 51] (Octanoyl-C(Ethyl(2-OBz))[Dab]T[Dab][Dab][Dab][dF]C(Ethyl(2-OBz))[Dab][Dab]T; lactam 5-C) |  |  |  |  |  |  |  | 2 µg/mL (≈ 1.27 µM) | 1 to 2 µg/mL | 2 µg/mL (≈ 1.27 µM) | 2 µg/mL (≈ 1.27 µM) | >32 µg/mL | 2 to 4 µg/mL | 2 to 4 µg/mL
6 | CCCCCCCCCC(=O)OCCSC[C@H](N)C(=O)N[C@@H](CCN)C(=O)N[C@H](C(=O)N[C@@H](CCN)C(=O)N[C@H]1CCNC(=O)[C@H]([C@@H](C)O)NC(=O)[C@H](CCN)NC(=O)[C@H](CCN)NC(=O)[C@H](CC(C)C)NC(=O)[C@@H](Cc2ccccc2)NC(=O)[C@H](CCN)NC1=O)[C@@H](C)O [Compound 31] (H-C(Ethyl(2-decanoyloxy))[Dab]T[Dab][Dab][Dab][dF]L[Dab][Dab]T; lactam 5-C) | 2 µg/mL (≈ 1.47 µM) | 1 µg/mL (≈ 0.733 µM) | 1 µg/mL (≈ 0.733 µM) | 0.5 µg/mL (≈ 0.366 µM) | >32 µg/mL | 4 µg/mL (≈ 2.93 µM) | 2 to 4 µg/mL |  |  |  |  |  |  | 
